The values that follow come from paper PMC6099921, “Microwave Optimized Synthesis of N-(adamantan-1-yl)-4-[(adamantan-1-yl)-sulfamoyl]benzamide and Its Derivatives for Anti-Dengue Virus Activity” (Molecules : A Journal of Synthetic Chemistry and Natural …, 2018).

The test system of data set [1] is DENV2 NS2B/NS3 protease. Further details: method as in ref 6 (Timiri et al., 2015). The note with it: in vitro; ref 6 (Timiri et al., 2015); cited from earlier work.
Data set [2] has as its system DENV2. In words: Cell-based Flavivirus Immunodetection (CFI) assay, DENV envelope protein production in A549 cells. Further details: species or system dengue virus serotype 2. Particulars: ± standard deviation, at least three independent experiments. The method, then:
(§1) The antiviral activity of the test compounds (1, 3, 6, and 7) was examined in the Cell-based Flavivirus Immuno-assay (CFI assay). The CFI assay is based on a quantitative immunodetection of the DENV envelope protein production in A549 cells. Infection of the A549 cells by the DENV2 was allowed to occur in the presence of each test compound, after which virus load was measured by quantifying the amount of envelope protein that is produced using enzyme linked immunosorbent assay (ELISA). To ensure that the inhibition of the envelope production was not due to cell death, the cytotoxicity of each test compound was assessed via the cell viability assay.
A549 cells (catalog no. CCL-185; ATCC, Manassas, VA, USA) were maintained in Ham’s F-12 medium with 10% fetal bovine serum (FBS) and 1% penicillin-streptomycin at 37 °C in 5% CO2. The DENV2 used in this study was prepared by inoculating monolayers of C6/36 cells grown in RPMI 1640 medium with 5% FBS and 1% penicillin-streptomycin. After incubation at 28 °C for four to five days, the cell culture supernatant was collected after clarification of cell debris and was stored at −80 °C until used.
A549 cells were trypsinised and diluted to a concentration of 2 × 10^5 cells/mL in culture medium containing 2% FBS. A total of 100 μL of the cell suspension (2 × 10^4 cells) was dispensed into each well of a 96-well tissue culture plate. The cells were grown overnight in culture medium at 37 °C with 5% CO2 and were then infected with the DENV at a multiplicity of infection of 0.3 in the presence of different concentrations of the test compounds for 1 h at 37 °C with 5% CO2. The virus inoculum was removed and then replaced with fresh medium containing the test compounds and the cells were incubated at 37 °C with 5% CO2 for 48 h. The cells were washed once with phosphate-buffered saline (PBS) and fixed with cold methanol for 10 min. After the fixed cells were washed twice with PBS, they were blocked with PBS containing 1% FBS and 0.05% Tween 20 for 1 h at room temperature. A primary antibody (antibody 4G2) solution was then added, and the mixture was incubated for 3 h. The cells were washed three times with PBS, followed by incubation for 1 h with horseradish peroxidase-conjugated anti-mouse immunoglobulin G. After the cells were washed three times with PBS, 3,3′,5,5′-tetramethylbenzidine substrate solution was added to each well, and the reaction was stopped by adding 0.5 M sulfuric acid. The absorbencies of the solutions were measured with a Tecan Safire II plate reader (Tecan Group Ltd., Männedorf, Switzerland) at 450 nm for viral antigen quantification. Dose-response curves were plotted from the mean absorbance versus the log of the concentration of the test compound. The IC50, that is, the concentration of the test compound that inhibited the level of viral envelope protein production by 50%, was calculated by nonlinear regression analysis. All of the experiments were conducted in triplicate.

In data set [3] the test system is A549 cells. Description: Celltiter-Glo Luminescent cell viability assay (cytotoxicity). Particulars: A549 cells, 48 h, maximum concentration tested 100 µM. The class given is cell-based. The method, then:
as §1
(§2) The cytotoxicities of the test compounds were measured by a Celltiter-Glo Luminescent cell viability assay, according to the manufacturer’s protocol (catalog no. G7570; Promega, Madison, WI, USA). The A549 cell preparation and compound addition were performed, as described above under the “CFI assay”. After 48 h of incubation, the luminescent signals for cells treated with the test compounds were compared to those for cells treated with dimethyl sulfoxide (DMSO) to determine the CC50. […] All of the experiments were conducted in triplicate.
Background: Cellular ATP, detected with luciferase, serves as a proxy for viable cell number.

Assay in data set [4]: as above
Type of data set: cell-based. The note with it: human. The method, then: as §1, §2

Data set [5] concerns DENV. Further details: method as in ref 9 (Lin and Chen, 2016). The note with it: small scale clinical study; ref 9 (Lin and Chen, 2016); cited from earlier work.
For data set [6], the system named is DENV. More on the design: method as in ref 8 (Koff et al., 1980). Particulars: all four serotypes, ref 8 (Koff et al., 1980); cited from earlier work.
Where [7] appears, read: A549 cells, 48 h, maximum concentration tested 100 µM, read-out: CC50.
Where [8] appears, read: Dengue virus, DENV2, A549, 48 h, CFI assay, A549 cells infected with DENV2, MOI 0.3, 48 h, read-out: DENV2 IC50.

Read-outs that look alike come from different tables or passages of the source.

The term IC50 denotes the concentration that gives 50% inhibition. For `O=C1c2ccccc2C(=O)N1c1ccc(S(=O)(=O)Nc2cccc3ccccc23)cc1` [SF2], in data set [1], the half-maximal inhibitory concentration (IC50) is 122 µM.
For orientation: CC50 means the concentration giving 50% cytotoxicity. For `O=C(NC12CC3CC(CC(C3)C1)C2)c1ccc(S(=O)(=O)NC23CC4CC(CC(C4)C2)C3)cc1` [Compound 3, N-(adamantan-1-yl)-4-[(adamantan-1-yl)sulfamoyl]benzamide], the IC50 was found to be 22.4 ± 7.7 µM in data set [2] (CFI assay, A549 cells infected with DENV2, MOI 0.3, 48 h, read-out: DENV2 IC50) and 22.2 µM in data set [2] (Dengue virus, DENV2, A549, 48 h, read-out: DENV2 IC50, CFI assay, A549 cells infected with DENV2, MOI 0.3, 48 h). This compound displayed a CC50 in data set [3] greater than 100 µM. Moreover, the CC50 at 48 h in data set [4] (setting [7]) was less than 100 µM.
As to `O=C(NC12CC3CC(CC(C3)C1)C2)c1ccccc1` [Compound 6, N-(adamantan-1-yl)benzamide], in data set [2] (setting [8]), the IC50 was greater than 100 µM. For the same compound, in data set [4] (setting [7]), the CC50 at 48 h is greater than 100 µM.
`CCc1ccc(NS(=O)(=O)c2ccc(N3C(=O)c4ccccc4C3=O)cc2)cc1` [SF1]: the IC50 in data set [1] is 48.2 µM.
Turning to `NS(=O)(=O)c1ccc(C(=O)NC23CC4CC(CC(C4)C2)C3)cc1` [Compound 7, N-(adamantan-1-yl)-4-sulfamoylbenzamide], in data set [2] (setting [8]), the IC50 came out at 42.8 ± 8.6 µM. In addition, in data set [3], the CC50 is greater than 100 µM. In addition, in data set [4] (setting [7]), the CC50 at 48 h is less than 100 µM.
With `NC12CC3CC(CC(C3)C1)C2` [Compound 1, amantadine, reference compound], the “DENV2 IC50” value in data set [2] (CFI assay, A549 cells infected with DENV2, MOI 0.3, 48 h) is on record as “did not show significant DENV2 activity”. Further, the IC50 in data set [2] (setting [8]) was greater than 100 µM. Moreover, the “treatment effectiveness in DENV infected patients” value in data set [5] is on record as “effective treatment option”. The CC50 at 48 h in data set [4] (CC50) was greater than 100 µM. Further, the “anti-DENV activity in vitro” value in data set [6] was “anti-DENV activity on all four serotypes”.
